pIC50: −log10 of the molar value.

For one test, the target named is PAD4 (Homo sapiens (Human), UniProt Q9UM07). The test is described as follows: PAD4 enzyme activity colorimetric assay (citrullination of BAEE). It is filed as biochemical. The settings on record: 0.2 μg PAD4, 5 mM BAEE, 37° C. The method, then: PAD4 enzyme activity assays are conducted to determine PAD4 inhibitory activity. PAD4 inhibition efficacy of the inhibitors is determined using a colorimetric assay for citrullination production.
The inhibition efficacy of PAD4 inhibitors were determined by colorimetric measurement of citrulline generated by PAD4 catalyzed citrullination of BAEE. 0.2 μg PAD4 was pre-incubated with inhibitors in 100 μl buffer containing 50 mM Tris-HCl pH7.6, 5 mM CaCl2, 2 mM DTT for 0.5 hr at 37° C. The reaction was started by the addition of BAEE to 5 mM and halted 1.5 hr later with the addition of 25 μl 5 M HClO4. Then the samples were briefly centrifuged at 12000 rpm for 2 min at 4° C. and the supernatant (120 μl) were assayed for citrulline by mixing with 120 μl reagent A (0.5% w/v diacetyl monoxime and 15% w/v NaCl in water) and 240 μl reagent B (1% w/v antipyrine, 0.15% w/v ferric chloride, 25% v/v H2SO4 and 25% v/v H3PO4). The mixtures were boiled for 15 min and cooled to room temperature in ice bath. The absorbance of the reagent mixtures at 464 nm was measured by Thermo BioMate™ 3 spectrophotometer. Efficacies of inhibitors are indicated as relative PAD4 citrullination activity by normalizing the PAD4 activity without inhibitor treatment to 100%.

A further test relates to S180 cells. The test is described as follows: MTT assay of S180 cell growth inhibition. It is filed as cell-based. To be noted: Mus musculus, S-180. The protocol:
(§1) Cells were treated with individual compounds at different concentrations for 72 hr in 24-well plates. MTT reagent was added to a final concentration of 0.5 mg/ml and further incubated for 4 hr. The yellow-colored MTT was reduced to insoluble purple-colored Formazan in living cells. Culture medium was removed and DMSO was added to dissolve Formazan into solution. The absorbance of the solution was then measured at 570 nm using a Thermo BioMate™ 3 spectrophotometer.

The next test has as its system LC3. The test is described as follows: Western blot of LC3 cleavage (autophagy). Format: cell-based, human. To be noted: U2OS cells, concentration-dependent. The method, then: YW3-56 induces cell death by autophagy, a cell death process in which cellular proteins and organelles are degraded by fusion with lysosomes. Cleavage of LC3-I to generate a fast migrating isoform LC3-II is a characteristic autophagy event. LC3 cleavage is induced after YW3-56 treatment in a concentration-dependent manner as shown in the Western blot in FIG. 6. Western blot and immunostaining was performed essentially as described in Li, P. et al., Oncogene 29 (21), 3153-3162 (2010). Antibodies used in Western blot were anti-p53 (Sigma), anti-PAD4, anti-p21 (Sigma), anti-PUMA (Calbiochem), anti-SESN2 (Abeam), anti-p70S6K (Cell Signaling), anti-p70S6K-[…] (Cell Signaling), anti-LC3 (Cell Signaling) and anti-β-actin (Sigma) at appropriate dilutions. Anti-LC3B antibody (Cell Signaling) was used for immunostaining. DNA was stained by the DNA dye Hoechst.
For orientation: Immunoblotting shows a protein as a band on a membrane.

In another test the test system is S180 tumor. The experiment in a line: Sarcoma S180 cell-derived mouse tumor model. The settings on record: YW3-56 10 mg/kg i.p. daily for 1 week. It is filed as in vivo. The source says:
A well-established sarcoma S180 cell-derived mouse tumor model is used in this example to determine the effects of PAD4 inhibitors of the present invention on tumor growth in mice.
S180 ascites tumor cells were used to form solid tumors after subcutaneous injection essentially as described in Wang, W. et al., Mol. Biosyst., 2011, 7:766-772. In brief, for initiation of subcutaneous tumors, the cells were obtained as an ascitic form from the tumor-bearing mice, which were serially transplanted once per week. Subcutaneous tumors were implanted by injecting 0.2 ml of 0.9% saline containing 1×10^7 viable tumor cells under the skin on the right armpit. 24 hr after implantation, male ICR mice were randomly divided into experimental groups. The mice in the positive control group were given a daily i.p injection of 2 mg/kg of doxorubicin in 0.2 ml of 0.9% saline for 7 consecutive days. The mice in the negative control group were given a daily i.p injection of 0.2 ml of 0.9% saline for 7 consecutive days. The mice in the treatment groups were given a daily i.p injection of YW3-56 (10 mg/kg), SAHA (5 mg/kg), or a combination of YW3-56 (5 mg/kg) and SAHA (2.5 mg/kg) for 7 consecutive days. The weights of the mice were recorded every day. 24 hr after the last administration, all mice were weighed, euthanized and immediately dissected to obtain and weigh the tumor and vital organs.

Test [1] concerns U2OS human osteosarcoma cells. The test is described as follows: MTT assay of U2OS cancer cell growth inhibition. Format: cell-based. The method, then: as §1, with “MIT assays are conducted to evaluate activity to inhibit cancer cell growth. U2OS human osteosarcoma cells were” for “Cells were”, “plates. MIT” for “plates. MTT”, “spectrophotometer. Results are shown in FIG. 1 and average and standard deviations are shown (n>=3).” for “spectrophotometer.”
as §1

For another test, the system named is p53 and its target genes. The experiment in a line: RT-qPCR of p53 and its target genes in S180 cells. To be noted: concentration dependent. Format: cell-based, mouse. The protocol:
RNA was extracted using RNeasy Mini Kit (Qiagen) per manufacturer's instructions. 1 μg RNA was reverse transcribed into cDNA using qScript cDNA SuperMix (Quanta Biosciences) per manufacturer's instructions. Quantitative PCR was performed using SYBR Green SuperMix (Quanta Biosciences) in StepOnePlus Real-Time PCR System (Applied Biosystems). FIG. 10 is a graph showing p53 and its target gene expression induced in S180 cells by YW3-56 in a concentration dependent manner.
On the technique in general: Quantitative PCR measures a nucleic acid by following its amplification.

Sequence of PAD4 (Q9UM07 whole entry, species assumed): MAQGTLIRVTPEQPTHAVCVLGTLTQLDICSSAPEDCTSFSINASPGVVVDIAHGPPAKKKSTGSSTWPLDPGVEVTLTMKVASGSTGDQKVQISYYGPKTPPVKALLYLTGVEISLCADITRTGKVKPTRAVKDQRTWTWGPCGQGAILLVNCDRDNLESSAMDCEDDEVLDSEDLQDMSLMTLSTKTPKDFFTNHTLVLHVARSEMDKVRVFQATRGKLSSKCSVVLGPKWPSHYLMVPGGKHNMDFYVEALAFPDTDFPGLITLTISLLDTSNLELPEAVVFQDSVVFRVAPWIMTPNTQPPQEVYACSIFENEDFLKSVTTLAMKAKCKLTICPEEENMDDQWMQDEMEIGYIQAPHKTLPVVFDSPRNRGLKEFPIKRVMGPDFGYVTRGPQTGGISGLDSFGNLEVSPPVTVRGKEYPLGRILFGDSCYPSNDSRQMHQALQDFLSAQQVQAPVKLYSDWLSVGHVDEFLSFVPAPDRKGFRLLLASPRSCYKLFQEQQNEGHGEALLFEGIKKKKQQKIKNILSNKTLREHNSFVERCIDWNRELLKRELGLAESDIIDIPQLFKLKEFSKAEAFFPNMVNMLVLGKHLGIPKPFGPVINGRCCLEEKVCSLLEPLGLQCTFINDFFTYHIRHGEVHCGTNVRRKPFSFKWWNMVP

As for `CN(C)c1ccc2cc(C(=O)N[C@@H](CCCNC(=N)CCl)C(=O)NCc3ccccc3)ccc2c1` [YW3-56], the pIC50 is 5.30 to 6.00 against PAD4; 4.82 to 5.00 in the test with S180 cells; ~5.60 in test [1] (Homo sapiens, read-out: 50% inhibition Cell growth, U2OS cells, MTT, 72 hr). Also, the LC3 cleavage result in the test with LC3 is on record as “induced”. Besides, in the test with S180 tumor, the “growth of S180 tumor relative to control group” value was ~51.5%. In test [1] (20 μM, 3 days), the “U2OS cell growth in MTT assay” value is reported as “abolished cell growth”. The “expression of p53 and its target genes including SESN1 and SESN2” value in the test on p53 and its target genes is listed as “induced the expression”.

Source of the values: patent US8969333B2, “Therapeutic compositions and methods” (The Penn State Research Foundation, priority 2010, dated 2015).
